# Assay results taken from PubChem BioAssay (NCI).
#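 Cultured in 96-well plates, cells were exposed to test compound for 48 hours across five concentrations. TGI marks complete inhibition of growth.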
# Assays:
# Test in all cases: inhibition of tumour cell growth, NCI panel, 48 h
# [1] = test system: 786-0 renal
# [2] = test system: A498 renal
# [3] = test system: A549 NSCLC
# [4] = test system: ACHN renal
# [5] = test system: CAKI-1 renal
# [6] = test system: CCRF-CEM leukemia
# [7] = test system: COLO 205 colon
# [8] = test system: DLD-1 colon
# [9] = test system: DMS 114 small cell lung
# [10] = test system: DMS 273 small cell lung
# [11] = test system: EKVX NSCLC
# [12] = test system: HCC-2998 colon
# [13] = test system: HCT-15 colon
# [14] = test system: HL-60(TB) leukemia
# [15] = test system: HOP-18 NSCLC
# [16] = test system: HOP-62 NSCLC
# [17] = test system: HOP-92 NSCLC
# [18] = test system: IGROV1 ovarian
# [19] = test system: K-562 leukemia
# [20] = test system: KM12 colon
# [21] = test system: KM20L2 colon
# [22] = test system: LOX IMVI melanoma
# [23] = test system: M19-MEL melanoma
# [24] = test system: MALME-3M melanoma
# [25] = test system: MOLT-4 leukemia
# [26] = test system: NCI-H23 lung
# [27] = test system: NCI-H460 lung
# [28] = test system: NCI-H522 lung
# [29] = test system: OVCAR-3 ovarian
# [30] = test system: OVCAR-5 ovarian
# [31] = test system: OVCAR-8 ovarian
# [32] = test system: RPMI-8226 leukemia
# [33] = test system: RXF 393 renal
# [34] = test system: RXF-631 renal
# [35] = test system: SF-268 CNS
# [36] = test system: SF-295 CNS
# [37] = test system: SF-539 CNS
# [38] = test system: SK-MEL-2 melanoma
# [39] = test system: SK-MEL-28 melanoma
# [40] = test system: SK-MEL-5 melanoma
# [41] = test system: SK-OV-3 ovarian
# [42] = test system: SN12C renal
# [43] = test system: SNB-19 CNS
# [44] = test system: SNB-75 CNS
# [45] = test system: SNB-78 CNS
# [46] = test system: SW-620 colon
# [47] = test system: TK-10 renal
# [48] = test system: U251 CNS
# [49] = test system: UACC-62 melanoma
# [50] = test system: UO-31 renal
# [51] = test system: HCT-116 colon
# [52] = test system: HT29 colon
# [53] = test system: LXFL 529 NSCLC
# [54] = test system: M14 melanoma
# [55] = test system: NCI-H226 lung
# [56] = test system: OVCAR-4 ovarian
# [57] = test system: SR leukemia
# [58] = test system: UACC-257 melanoma
compound,measurement,setting,value
COc1ccc(/C=C/C(=O)c2sc(Nc3ccc([N+](=O)[O-])cc3)nc2C)cc1,TGI,[1],> 100 µM
same,TGI,[2],> 100 µM
same,TGI,[3],> 100 µM
same,TGI,[4],> 100 µM
same,TGI,[5],> 100 µM
same,TGI,[6],82 µM
same,TGI,[7],> 100 µM
same,TGI,[8],> 100 µM
same,TGI,[9],> 100 µM
same,TGI,[10],> 100 µM
same,TGI,[11],> 100 µM
same,TGI,[12],83.5 µM
same,TGI,[13],> 100 µM
same,TGI,[14],67.6 µM
same,TGI,[15],> 100 µM
same,TGI,[16],> 100 µM
same,TGI,[17],81.5 µM
same,TGI,[18],> 100 µM
same,TGI,[19],93.6 µM
same,TGI,[20],> 100 µM
same,TGI,[21],> 100 µM
same,TGI,[22],> 100 µM
same,TGI,[23],> 100 µM
same,TGI,[24],> 100 µM
same,TGI,[25],50.7 µM
same,TGI,[26],85 µM
same,TGI,[27],> 100 µM
same,TGI,[28],51.1 µM
same,TGI,[29],89.4 µM
same,TGI,[30],> 100 µM
same,TGI,[31],> 100 µM
same,TGI,[32],47.9 µM
same,TGI,[33],87.9 µM
same,TGI,[34],> 100 µM
same,TGI,[35],> 100 µM
same,TGI,[36],81.5 µM
same,TGI,[37],> 100 µM
same,TGI,[38],48.6 µM
same,TGI,[39],> 100 µM
same,TGI,[40],46.8 µM
same,TGI,[41],> 100 µM
same,TGI,[42],> 100 µM
same,TGI,[43],> 100 µM
same,TGI,[44],> 100 µM
same,TGI,[45],> 100 µM
same,TGI,[46],> 100 µM
same,TGI,[47],> 100 µM
same,TGI,[48],> 100 µM
same,TGI,[49],> 100 µM
same,TGI,[50],91.9 µM
O=C1c2ccccc2C(=O)c2nc3c(O)cccc3cc21,TGI,[1],> 100 µM
same,TGI,[2],64.2 µM
same,TGI,[3],> 100 µM
same,TGI,[4],> 100 µM
same,TGI,[5],> 100 µM
same,TGI,[7],> 100 µM
same,TGI,[8],> 100 µM
same,TGI,[9],20.7 µM
same,TGI,[10],> 100 µM
same,TGI,[11],> 100 µM
same,TGI,[12],> 100 µM
same,TGI,[51],19.4 µM
same,TGI,[13],> 100 µM
same,TGI,[15],> 100 µM
same,TGI,[16],> 100 µM
same,TGI,[52],52.9 µM
same,TGI,[18],> 100 µM
same,TGI,[19],> 100 µM
same,TGI,[20],> 100 µM
same,TGI,[21],> 100 µM
same,TGI,[22],> 100 µM
same,TGI,[53],> 100 µM
same,TGI,[54],27.9 µM
same,TGI,[24],> 100 µM
same,TGI,[25],23 µM
same,TGI,[55],> 100 µM
same,TGI,[26],> 100 µM
same,TGI,[27],> 100 µM
same,TGI,[28],72.2 µM
same,TGI,[29],4.98 µM
same,TGI,[56],> 100 µM
same,TGI,[30],> 100 µM
same,TGI,[31],> 100 µM
same,TGI,[32],> 100 µM
same,TGI,[33],> 100 µM
same,TGI,[34],> 100 µM
same,TGI,[35],> 100 µM
same,TGI,[36],74.1 µM
same,TGI,[37],> 100 µM
same,TGI,[38],> 100 µM
same,TGI,[39],> 100 µM
same,TGI,[40],18.5 µM
same,TGI,[42],> 100 µM
same,TGI,[43],> 100 µM
same,TGI,[44],> 100 µM
same,TGI,[57],> 100 µM
same,TGI,[46],> 100 µM
same,TGI,[47],> 100 µM
same,TGI,[48],> 100 µM
same,TGI,[58],32.4 µM
same,TGI,[49],> 100 µM
same,TGI,[50],> 100 µM
CN1C(=O)N(C)C2(O)c3ccccc3C(=O)C12O (stereo not drawn),TGI,[1],> 100 µM
same,TGI,[2],> 100 µM
same,TGI,[3],> 100 µM
same,TGI,[4],> 100 µM
same,TGI,[5],> 100 µM
same,TGI,[6],> 100 µM
same,TGI,[7],> 100 µM
same,TGI,[8],> 100 µM
same,TGI,[9],> 100 µM
same,TGI,[10],> 100 µM
same,TGI,[11],> 100 µM
same,TGI,[12],> 100 µM
same,TGI,[51],> 100 µM
same,TGI,[13],> 100 µM
same,TGI,[15],> 100 µM
same,TGI,[16],> 100 µM
same,TGI,[52],> 100 µM
same,TGI,[18],> 100 µM
same,TGI,[19],> 100 µM
same,TGI,[20],> 100 µM
same,TGI,[21],> 100 µM
same,TGI,[22],> 100 µM
same,TGI,[53],> 100 µM
same,TGI,[54],> 100 µM
same,TGI,[23],> 100 µM
same,TGI,[24],> 100 µM
same,TGI,[25],> 100 µM
same,TGI,[55],> 100 µM
same,TGI,[26],> 100 µM
same,TGI,[27],> 100 µM
same,TGI,[28],> 100 µM
same,TGI,[29],> 100 µM
same,TGI,[56],> 100 µM
same,TGI,[30],> 100 µM
same,TGI,[31],> 100 µM
same,TGI,[32],> 100 µM
same,TGI,[33],> 100 µM
same,TGI,[34],> 100 µM
same,TGI,[35],> 100 µM
same,TGI,[36],> 100 µM
same,TGI,[37],> 100 µM
same,TGI,[38],> 100 µM
same,TGI,[39],> 100 µM
same,TGI,[40],> 100 µM
same,TGI,[41],> 100 µM
same,TGI,[42],> 100 µM
same,TGI,[43],> 100 µM
same,TGI,[44],> 100 µM
same,TGI,[45],> 100 µM
same,TGI,[57],> 100 µM
same,TGI,[46],> 100 µM
same,TGI,[47],> 100 µM
same,TGI,[48],> 100 µM
same,TGI,[58],> 100 µM
same,TGI,[49],> 100 µM
same,TGI,[50],> 100 µM
